Converted amounts (≈) assume the structure as drawn. Structures can show the parent of a compound that is named as a salt. Where two headings read alike, the source gives them in different places.
What was measured:
[1] = design: Food Effect (graded symbols): key to the marks not given beside the values; details: cited from earlier work
BCS classification = assay type: physicochemical
[2] = cited from earlier work; for Solubility at pH 6.5: not generated within this working group, ref Table I
[3] = Effective human jejunum permeability (Peff,man) used in the PBPK model; assay type: in vitro ADME; details: human, 1 h
Experimental: Permeation rates of the compounds, including reference compounds, were measured in the apical-to-basolateral (AB) direction. The donor and receiver wells were sampled immediately after application of the compound to the donor well to determine baseline concentrations, and again after 1 h. Quantification was done using high-performance liquid chromatography combined with mass spectrometry (HPLC-MS/MS) analysis and monolayer integrity was verified by analyzing the receiver samples for LuY fluorescence in a plate reader.

[4] = design: method as in Table I reference column; details: not generated within this working group; ref Table I; cited from earlier work
[5] = PBPK food effect modeling (Simcyp V17.1 and/or GastroPlus V9.5; Model 1 / Model 2); design: species or system human
Caco-2 = details: cited from earlier work
[6] = Solubility measurement in aqueous buffer solutions; details: pH 6.5, aqueous buffer, thermodynamic from solid
Experimental: (§1) The solubility of the drug substances was determined in biorelevant media as well as in aqueous buffers at different pH. Fasted state simulated gastric fluid (FaSSGF) ([37]), fasted state simulated intestinal fluid (FaSSIF-V2) ([38]), and fed state simulated intestinal fluid (FeSSIF-V2) ([39]) were prepared according to the instructions provided by Biorelevant (Biorelevant.com Ltd., London, UK). […] For neutral compounds, solubility was determined at pH 2, pH 4, and pH 7.
(§2) For freely soluble compounds, the extent of solubilization was measured only up to 10 mg/mL.

[7] = Solubility measurement in biorelevant media (FaSSIF-V2, FeSSIF-V2); details: 37 °C, thermodynamic from solid
Experimental: as §1, §2

physchem [8] = details: pH 6.5, aqueous buffer, thermodynamic from solid
Experimental: as §1, §2

physchem [9] = details: 37 °C, thermodynamic from solid
Experimental: as §1, §2

[10] = Model 2, fasted, ref published clinical data (Table I)
[11] = Model 2, fed, ref published clinical data (Table I)
[12] = micronized formulation, healthy volunteers, high-fat breakfast
[13] = Model 1, fasted, ref published clinical data (Table I)
[14] = Model 1, fed, ref published clinical data (Table I)
[15] = Model 1, ref published clinical data (Table I)
[16] = clinically observed PK change (AUC, Cmax) fed vs fasted, compiled by literature search
[17] = direction, AUC and/or Cmax ratio fed to fasted, BE criteria 0.8–1.25, ref drug label
[18] = not generated within this working group, ref Table I
[19] = Model 2, ref published clinical data (Table I)

SMILES	BCS (BCS classification)	Effective permeability [3]	pKa (pKa; pKa (a, acidic))	pKa (pKa; pKa (b, basic))	AUC Ratio of Ratios (Sim'd / Obs'd) ([5]; Model 1)	Cmax Ratio of Ratios (Sim'd / Obs'd) ([5]; Model 1)	AUC Ratio of Ratios (Sim'd / Obs'd) ([5]; Model 2)	Cmax Ratio of Ratios (Sim'd / Obs'd) ([5]; Model 2)	Observed AUC(0-inf) Fasted [1, 10]	Observed Cmax Fasted [1, 10]	Observed AUC(0-inf) Fed [1, 11]	Observed Cmax Fed [1, 11]	Solubility at pH 6.5 [2]	FaSSIF solubility [4]	FeSSIF solubility [4]	Observed AUC(0-inf) Fasted [1, 13]	Observed Cmax Fasted [1, 13]	Observed AUC(0-inf) Fed [1, 14]	Food Effect [1, 16]	Food Effect [1, 17]	further results
C[C@@H](O[C@H]1OCCN(Cc2n[nH]c(=O)[nH]2)[C@H]1c1ccc(F)cc1)c1cc(C(F)(F)F)cc(C(F)(F)F)c1 [Aprepitant]	II/IV	240 ×10⁻⁶ cm/s	9.15	2.45	–	–	–	–	8.57 µg·h/mL	496 ng/mL	24.1 µg·h/mL	1100 ng/mL	0.7 μg/ml	5.4 µg/mL	92.4 µg/mL	–	–	–	–	–	AUC observed, fasted ([1]; 100 mg micronized): 8.571 µg·h/mL; AUC observed, fed ([1]; 100 mg micronized): 24,057 ng.h/ml; Cmax observed, fasted ([1]; 100 mg micronized): 496 ng/mL; Cmax observed, fed ([1]; 100 mg micronized): 1098 ng/mL; Food Effect ([1]; Micronized, fed vs fasted, compiled by literature search): Positive (positive if the ratio of fed > fasted); Food Effect ([1]; Nanonized, fed vs fasted, compiled by literature search): None (none if no significant change in AUC and Cmax with food); increase in AUC with food [1, 12]: 2.8 fold; increase in Cmax with food [1, 12]: 2.2 fold; solubility in US Pharmacopeia Simulated Intestinal Fluids (SIFsp) ([2]; pH 6.8): 0.7 µg/mL (≈ 1.31 µM); solubility in water ([2]; pH 8.0, thermodynamically stable form): 7 µg/mL (≈ 13.1 µM)
CCC[C@H](NC(=O)[C@@H]1[C@H]2CCC[C@H]2CN1C(=O)[C@@H](NC(=O)[C@@H](NC(=O)c1cnccn1)C1CCCCC1)C(C)(C)C)C(=O)C(=O)NC1CC1 [Telaprevir]	–	140 ×10⁻⁶ cm/s	–	–	0.42	0.26	0.66	0.44	–	–	–	–	–	–	–	–	–	–	–	–	Food Effect (graded symbols) ([1]; human, in vivo): +++; Observed AUC Ratios (Fed/Fasted) ([1]; human, in vivo): 3.71; Observed AUC(0-inf) Fasted ([1]; human, in vivo): 3.58 µg·h/mL; Observed AUC(0-inf) Fed ([1]; human, in vivo): 13.3 µg·h/mL; Observed Cmax Fasted ([1]; human, in vivo): 349 ng/mL; Observed Cmax Fed ([1]; human, in vivo): 2080 ng/mL; Observed Cmax Ratios (Fed/Fasted) ([1]; human, in vivo): 5.96; Apparent permeability (Caco-2) (Caco-2; Caco-2): 4.4 (Caco-2)^^ × 10^−6 cm/s; solubility (physchem [8]): 85 µg/mL (≈ 125 µM); solubility (physchem [9]; FaSSIF solubility): 120 µg/mL (≈ 177 µM); solubility (physchem [9]; FeSSIF solubility): 80 µg/mL (≈ 118 µM)

Second part, led by results:

BCS (BCS classification)	Effective permeability [3]	pKa (pKa; pKa (a, acidic))	pKa (pKa; pKa (b, basic))	AUC Ratio of Ratios (Sim'd / Obs'd) ([5]; Model 1)	Cmax Ratio of Ratios (Sim'd / Obs'd) ([5]; Model 1)	AUC Ratio of Ratios (Sim'd / Obs'd) ([5]; Model 2)	Cmax Ratio of Ratios (Sim'd / Obs'd) ([5]; Model 2)	SMILES	Observed AUC(0-inf) Fasted [1, 10]	Observed Cmax Fasted [1, 10]	Observed AUC(0-inf) Fed [1, 11]	Observed Cmax Fed [1, 11]	Solubility at pH 6.5 [2]	FaSSIF solubility [4]	FeSSIF solubility [4]	Observed AUC(0-inf) Fasted [1, 13]	Observed Cmax Fasted [1, 13]	Observed AUC(0-inf) Fed [1, 14]	Food Effect [1, 16]	Food Effect [1, 17]	further results
II/IV	–	9.4	–	1.03	1.15	–	–	CC(C)(C)c1cc(C(C)(C)C)c(NC(=O)c2c[nH]c3ccccc3c2=O)cc1O [Ivacaftor]	–	–	–	–	0.5^^ μg/ml	53^^ μg/ml	550^^ μg/ml	3.12 µg·h/mL	148 ng/mL	9.59 µg·h/mL	Positive (positive if the ratio of fed > fasted)	Positive (positive if the ratio of fed > fasted)	Observed Cmax Fed [1, 14]: 637 ng/mL; Observed AUC Ratios (Fed/Fasted) [1, 15]: 3.07; Observed Cmax Ratios (Fed/Fasted) [1, 15]: 4.30; Apparent permeability (Caco-2) (Caco-2; [18]): 11.9 (Caco-2)^^ × 10^−6 cm/s
II/IV	70 ×10⁻⁶ cm/s	–	6	–	–	0.58	0.66	Cc1c(O)cccc1C(=O)N[C@@H](CSc1ccccc1)[C@H](O)CN1C[C@H]2CCCC[C@H]2C[C@H]1C(=O)NC(C)(C)C [Nelfinavir mesylate]	7.08 µg·h/mL	895 ng/mL	35.8 µg·h/mL	3910 ng/mL	41.4^^ μg/ml	22^^ μg/ml	243^^ μg/ml	–	–	–	Positive (positive if the ratio of fed > fasted)	Positive (positive if the ratio of fed > fasted)	Observed AUC Ratios (Fed/Fasted) [1, 19]: 5.06; Observed Cmax Ratios (Fed/Fasted) [1, 19]: 4.37; food effect (FE) direction ([1]; ref drug label): positive FE
II/IV	–	–	–	0.13	0.12	0.24	0.44	Cc1ccc(Nc2nccc(N(C)c3ccc4c(C)n(C)nc4c3)n2)cc1S(N)(=O)=O [Pazopanib]	824 µg·h/mL	20700 ng/mL	2020 µg·h/mL	45200 ng/mL	–	–	–	824 µg·h/mL	20700 ng/mL	2020 µg·h/mL	Positive (positive if the ratio of fed > fasted)	Positive (positive if the ratio of fed > fasted)	fasted bioavailability ([1]; 800 mg dose): ~ 21%; fasted bioavailability, range ([1]; 800 mg dose): 14–39%; increase in AUC0-72h with a high-fat meal ([1]; 800 mg dose): 2.3 fold; increase in Cmax with a high-fat meal ([1]; 800 mg dose): 2.1 fold; increase in AUC0-72h with a high-fat meal ([1]; 800 mg dose, listed as pazopanib): approximately 2.3 fold; Observed Cmax Fed [1, 14]: 45200 ng/mL; Observed AUC Ratios (Fed/Fasted) [1, 15]: 2.45; Observed Cmax Ratios (Fed/Fasted) [1, 15]: 2.19; Observed AUC Ratios (Fed/Fasted) [1, 19]: 2.45; Observed Cmax Ratios (Fed/Fasted) [1, 19]: 2.19; solubility [6]: 0.5 µg/mL (≈ 1.14 µM); solubility ([7]; FaSSIF-V2 (fasted state simulated intestinal fluid), FaSSIF solubility): 1.2 µg/mL (≈ 2.74 µM); solubility ([7]; FeSSIF-V2 (fed state simulated intestinal fluid), FeSSIF solubility): 2.8 µg/mL (≈ 6.4 µM); Apparent permeability (Caco-2) (Caco-2; [18]): 16.9 (Caco-2)^^ × 10^−6 cm/s
